Assay results: ChEMBL document CHEMBL3046835, “Insecticidal activity influence of beta-cypermethrin on the pathogenicity of Beauveria bassiana against Aleurodicus disperses” (Crop Prot, 2013)

Tests used:
[1] = tested on: Aleurodicus dispersus; experiment: Insecticidal activity against third-instar nymph stage of Aleurodicus dispersus in guava plant leaves assessed as mortality at 4 mg/L applied via hand sprayer measured after 9 days in presence of 10^8 Beauveria bassiana conidial suspension under field conditions (reference value: 42.3 +/-3.58%); type: functional; conditions: 216 h
[2] = tested on: Aleurodicus dispersus; experiment: Insecticidal activity against third-instar nymph stage of Aleurodicus dispersus in guava plant leaves assessed as mortality at 8 mg/l measured after 9 days in presence of 10^8 Beauveria bassiana conidial suspension under laboratory conditions (reference value: 45.7 +/-3.18%); type: functional; conditions: 216 h
[3] = tested on: Aleurodicus dispersus; experiment: Insecticidal activity against third-instar nymph stage of Aleurodicus dispersus in guava leaves assessed as mortality at 5 mg/l treated for 15 s measured at 27 +/-2 degC after 48 hr (reference value: 3%); type: functional
[4] = tested on: Aleurodicus dispersus; experiment: Insecticidal activity against third-instar nymph stage of Aleurodicus dispersus in guava plant leaves assessed as mortality at 2 mg/L applied via hand sprayer measured after 3 days under field conditions (reference value: 3%); type: functional; conditions: 72 h
[5] = tested on: Beauveria bassiana; experiment: Effect on Beauveria bassiana Bb-N1 conidial germination at 4 mg/L measured at 27 +/-2 degC after 24 hr (reference value: 94.85 +/-2.13%); type: ADME, organism-based; conditions: in vivo
[6] = tested on: Aleurodicus dispersus; experiment: Insecticidal activity against third-instar nymph stage of Aleurodicus dispersus in guava plant leaves assessed as mortality at 4 mg/L applied via hand sprayer measured after 3 days in presence of 10^8 Beauveria bassiana conidial suspension under field conditions (reference value: 22.2 +/-3.15%); type: functional; conditions: 72 h
[7] = tested on: Aleurodicus dispersus; experiment: Insecticidal activity against third-instar nymph stage of Aleurodicus dispersus in guava plant leaves assessed as mortality at 4 mg/L applied via hand sprayer measured after 9 days under field conditions (reference value: 4%); type: functional; conditions: 216 h
[8] = tested on: Aleurodicus dispersus; experiment: Insecticidal activity against third-instar nymph stage of Aleurodicus dispersus in guava plant leaves assessed as mortality at 4 mg/l measured after 3 days under laboratory conditions (reference value: 2%); type: functional; conditions: 72 h
[9] = tested on: Aleurodicus dispersus; experiment: Insecticidal activity against third-instar nymph stage of Aleurodicus dispersus in guava plant leaves assessed as mortality at 4 mg/l measured after 6 days in presence of 10^8 Beauveria bassiana conidial suspension under laboratory conditions (reference value: 32.8 +/-2.39%); type: functional; conditions: 144 h
[10] = tested on: Aleurodicus dispersus; experiment: Insecticidal activity against third-instar nymph stage of Aleurodicus dispersus in guava plant leaves assessed as mortality at 8 mg/L applied via hand sprayer measured after 6 days in presence of 10^8 Beauveria bassiana conidial suspension under field conditions (reference value: 26.9 +/-3.04%); type: functional; conditions: 144 h
[11] = tested on: Beauveria bassiana; experiment: Effect on Beauveria bassiana Bb-N1 conidial germination at 8 mg/L measured at 27 +/-2 degC after 24 hr (reference value: 94.85 +/-2.13%); type: ADME, organism-based; conditions: in vivo
[12] = tested on: Beauveria bassiana; experiment: Inhibition of Beauveria bassiana Bb-N1 mycelial growth at 4 mg/L measured at 27 +/-2 degC after 10 days (reference value: 2.4 +/-0.19%); type: organism-based; set-up: scale not given: the % may be the effect or the level left; conditions: in vivo, 240 h
[13] = tested on: Aleurodicus dispersus; experiment: Insecticidal activity against third-instar nymph stage of Aleurodicus dispersus in guava plant leaves assessed as mortality at 4 mg/l measured after 9 days under laboratory conditions (reference value: 3%); type: functional; conditions: 216 h
[14] = tested on: Aleurodicus dispersus; experiment: Insecticidal activity against third-instar nymph stage of Aleurodicus dispersus in guava plant leaves assessed as mortality at 2 mg/l measured after 3 days under laboratory conditions (reference value: 2%); type: functional; conditions: 72 h
[15] = tested on: Beauveria bassiana; experiment: Effect on Beauveria bassiana Bb-N1 conidial production at <8 mg/L measured at 27 +/-2 degC after 10 days; type: ADME, organism-based; conditions: in vivo, 240 h
[16] = tested on: Aleurodicus dispersus; experiment: Insecticidal activity against third-instar nymph stage of Aleurodicus dispersus in guava leaves assessed as mortality at 40 mg/l treated for 15 s measured at 27 +/-2 degC after 48 hr (reference value: 3%); type: functional
[17] = tested on: Aleurodicus dispersus; experiment: Insecticidal activity against third-instar nymph stage of Aleurodicus dispersus in guava plant leaves assessed as mortality at 8 mg/l measured after 3 days under laboratory conditions (reference value: 2%); type: functional; conditions: 72 h
[18] = tested on: Aleurodicus dispersus; experiment: Insecticidal activity against third-instar nymph stage of Aleurodicus dispersus in guava plant leaves assessed as mortality at 8 mg/L applied via hand sprayer measured after 3 days in presence of 10^8 Beauveria bassiana conidial suspension under field conditions (reference value: 22.2 +/-3.15%); type: functional; conditions: 72 h
[19] = tested on: Aleurodicus dispersus; experiment: Insecticidal activity against third-instar nymph stage of Aleurodicus dispersus in guava plant leaves assessed as mortality at 8 mg/l measured after 6 days in presence of 10^8 Beauveria bassiana conidial suspension under laboratory conditions (reference value: 32.8 +/-2.39%); type: functional; conditions: 144 h
[20] = tested on: Aleurodicus dispersus; experiment: Insecticidal activity against third-instar nymph stage of Aleurodicus dispersus in guava plant leaves assessed as mortality at 2 mg/L applied via hand sprayer measured after 6 days in presence of 10^8 Beauveria bassiana conidial suspension under field conditions (reference value: 26.9 +/-3.04%); type: functional; conditions: 144 h
[21] = tested on: Aleurodicus dispersus; experiment: Insecticidal activity against third-instar nymph stage of Aleurodicus dispersus in guava plant leaves assessed as mortality at 4 mg/l measured after 6 days under laboratory conditions (reference value: 3%); type: functional; conditions: 144 h
[22] = tested on: Aleurodicus dispersus; experiment: Insecticidal activity against third-instar nymph stage of Aleurodicus dispersus in guava plant leaves assessed as mortality at 8 mg/L applied via hand sprayer measured after 9 days in presence of 10^8 Beauveria bassiana conidial suspension under field conditions (reference value: 42.3 +/-3.58%); type: functional; conditions: 216 h
[23] = tested on: Aleurodicus dispersus; experiment: Insecticidal activity against third-instar nymph stage of Aleurodicus dispersus in guava plant leaves assessed as mortality at 4 mg/L applied via hand sprayer measured after 6 days under field conditions (reference value: 3.5%); type: functional; conditions: 144 h
[24] = tested on: Aleurodicus dispersus; experiment: Insecticidal activity against third-instar nymph stage of Aleurodicus dispersus in guava plant leaves assessed as mortality at 2 mg/L applied via hand sprayer measured after 9 days under field conditions (reference value: 4%); type: functional; conditions: 216 h
[25] = tested on: Beauveria bassiana; experiment: Inhibition of Beauveria bassiana Bb-N1 mycelial growth at 10 mg/L measured at 27 +/-2 degC after 10 days (reference value: 2.4 +/-0.19%); type: organism-based; set-up: scale not given: the % may be the effect or the level left; conditions: in vivo, 240 h
[26] = tested on: Aleurodicus dispersus; experiment: Insecticidal activity against third-instar nymph stage of Aleurodicus dispersus in guava plant leaves assessed as mortality at 2 mg/l measured after 6 days in presence of 10^8 Beauveria bassiana conidial suspension under laboratory conditions (reference value: 32.8 +/-2.39%); type: functional; conditions: 144 h
[27] = tested on: Aleurodicus dispersus; experiment: Insecticidal activity against third-instar nymph stage of Aleurodicus dispersus in guava leaves assessed as mortality at 10 mg/l treated for 15 s measured at 27 +/-2 degC after 24 hr (reference value: 2%); type: functional
[28] = tested on: Aleurodicus dispersus; experiment: Insecticidal activity against third-instar nymph stage of Aleurodicus dispersus in guava plant leaves assessed as mortality at 2 mg/l measured after 3 days in presence of 10^8 Beauveria bassiana conidial suspension under laboratory conditions (reference value: 24.3 +/-1.03%); type: functional; conditions: 72 h
[29] = tested on: Aleurodicus dispersus; experiment: Insecticidal activity against third-instar nymph stage of Aleurodicus dispersus in guava plant leaves assessed as mortality at 8 mg/L applied via hand sprayer measured after 3 days under field conditions (reference value: 3%); type: functional; conditions: 72 h

SMILES: CC1(C)[C@H](C=C(Cl)Cl)[C@H]1C(=O)O[C@@H](C#N)c1cccc(Oc2ccccc2)c1 [BETA-CYPERMETHRIN]
- mortality at 4 µg/mL [1]: 62.4%
- mortality at 8 µg/mL [2]: 80.6%
- mortality at 5 µg/mL [3]: 32.3%
- mortality at 2 µg/mL [4]: 20.9%
- germination rate [5]: 93.15%
- mortality at 4 µg/mL [6]: 37.6%
- mortality at 4 µg/mL [7]: 26.7%
- mortality at 4 µg/mL [8]: 34.1%
- mortality at 4 µg/mL [9]: 77.6%
- mortality at 8 µg/mL [10]: 62.2%
- germination rate [11]: 92.31%
- Activity [12]: 3.1%
- mortality at 4 µg/mL [13]: 34.1%
- mortality at 2 µg/mL [14]: 28.7%
- Activity [15]: Non-toxic
- mortality at 40 µg/mL [16]: 60.3%
- mortality at 8 µg/mL [17]: 39.3%
- mortality at 8 µg/mL [18]: 42.3%
- mortality at 8 µg/mL [19]: 80.6%
- mortality at 2 µg/mL [20]: 50.9%
- mortality at 4 µg/mL [21]: 34.1%
- mortality at 8 µg/mL [22]: 63.7%
- mortality at 4 µg/mL [23]: 26.7%
- mortality at 2 µg/mL [24]: 20.9%
- Activity [25]: 8.2%
- mortality at 2 µg/mL [26]: 75.3%
- mortality at 10 µg/mL [27]: 23.1%
- mortality at 2 µg/mL [28]: 67.7%
- mortality at 8 µg/mL [29]: 29.4%
